Here are results for 28 molecules from US20130040935A1, “CYCLIC KETO-ENOLS FOR THERAPY” (BAYER INTELLECTUAL PROPERTY GMBH, priority 2010, published 2013).

Where two headings read alike, the source gives them in different places.

For assay [1], the target named is T1, human ACC1 (acetyl-coenzyme A carboxylase alpha transcript variant 1) (Homo sapiens, UniProt Q13085).
T1 construct: FLAG (C); made in house; host or cells: baculovirus-infected insect cells (Hi5)
Briefly: Human ACC1 enzyme assay, Assay B1 (ADP-Glo). In kind it is biochemical. (ADP-Glo first removes unused ATP, then detects ADP through luciferase.)

Another assay has as its system MCF7. Description: Cell proliferation assay (CellTiter-Glo, 96 h), MCF7. In kind it is cell-based. The following applies: Homo sapiens. The protocol:
In accordance with the invention, the substances were tested in cell-based assays for the ability of the substances of inhibiting tumour cell proliferation after a 96-hour incubation with the substance. Cell viability was tested using the CellTiter-Glo® luminescent cell viability assay (Promega). The cells were sown at a density of 2000-5000 cells/well (depending on the cell line) in 100 μl growth medium on 96-well microtitre plates. For each cell line examined, cells were sown on a separate plate to determine the luminescence at t=0 hours and t=96 hours. After overnight incubation at 37° C., the luminescence values for the t=0 samples were determined. The dose plates for the t=96 hours points in time were treated with substances diluted with growth medium. The cells were then incubated at 37° C. for 96 hours, and the luminescence values for the t=96 hours sample were then determined. For data analysis, the t=0 values were subtracted from the t=96 hour values for treated and untreated samples. The differences in luminescence in percent between substance-treated samples and control values were used to determine the growth inhibition in percent.
The substances were tested in the following cell lines which represent the stated indications in an exemplary manner: […]
(ATP-based viability assays read luminescence as a measure of living cells.)

For assay [2], the target named is human ACC2 (acetyl-coenzyme A carboxylase 2) (Homo sapiens, UniProt O00763). Briefly: Human ACC2 enzyme assay, Assay B2 (ADP-Glo).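 Also: human ACC2 activity read as ADP product, detected by luciferase glow luminescence after residual ATP removal, enzyme near 2 ng/µl in linear range, detection steps at 22 °C.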
[3] abbreviates: Assay B1, read-out: ACC 1 (=B1) IC50.
Setting [4] is: MCF7, Table 7, 96-hour incubation.
Where [5] appears, read: MCF7, Table 9a, 96-hour incubation.
The mark [6] stands for this setting: Assay B1, ADP-Glo, read-out: ACC 1 (=B1) IC50.

Chain of human ACC2 (acetyl-coenzyme A carboxylase 2) (O00763 27-2458 limits assumed): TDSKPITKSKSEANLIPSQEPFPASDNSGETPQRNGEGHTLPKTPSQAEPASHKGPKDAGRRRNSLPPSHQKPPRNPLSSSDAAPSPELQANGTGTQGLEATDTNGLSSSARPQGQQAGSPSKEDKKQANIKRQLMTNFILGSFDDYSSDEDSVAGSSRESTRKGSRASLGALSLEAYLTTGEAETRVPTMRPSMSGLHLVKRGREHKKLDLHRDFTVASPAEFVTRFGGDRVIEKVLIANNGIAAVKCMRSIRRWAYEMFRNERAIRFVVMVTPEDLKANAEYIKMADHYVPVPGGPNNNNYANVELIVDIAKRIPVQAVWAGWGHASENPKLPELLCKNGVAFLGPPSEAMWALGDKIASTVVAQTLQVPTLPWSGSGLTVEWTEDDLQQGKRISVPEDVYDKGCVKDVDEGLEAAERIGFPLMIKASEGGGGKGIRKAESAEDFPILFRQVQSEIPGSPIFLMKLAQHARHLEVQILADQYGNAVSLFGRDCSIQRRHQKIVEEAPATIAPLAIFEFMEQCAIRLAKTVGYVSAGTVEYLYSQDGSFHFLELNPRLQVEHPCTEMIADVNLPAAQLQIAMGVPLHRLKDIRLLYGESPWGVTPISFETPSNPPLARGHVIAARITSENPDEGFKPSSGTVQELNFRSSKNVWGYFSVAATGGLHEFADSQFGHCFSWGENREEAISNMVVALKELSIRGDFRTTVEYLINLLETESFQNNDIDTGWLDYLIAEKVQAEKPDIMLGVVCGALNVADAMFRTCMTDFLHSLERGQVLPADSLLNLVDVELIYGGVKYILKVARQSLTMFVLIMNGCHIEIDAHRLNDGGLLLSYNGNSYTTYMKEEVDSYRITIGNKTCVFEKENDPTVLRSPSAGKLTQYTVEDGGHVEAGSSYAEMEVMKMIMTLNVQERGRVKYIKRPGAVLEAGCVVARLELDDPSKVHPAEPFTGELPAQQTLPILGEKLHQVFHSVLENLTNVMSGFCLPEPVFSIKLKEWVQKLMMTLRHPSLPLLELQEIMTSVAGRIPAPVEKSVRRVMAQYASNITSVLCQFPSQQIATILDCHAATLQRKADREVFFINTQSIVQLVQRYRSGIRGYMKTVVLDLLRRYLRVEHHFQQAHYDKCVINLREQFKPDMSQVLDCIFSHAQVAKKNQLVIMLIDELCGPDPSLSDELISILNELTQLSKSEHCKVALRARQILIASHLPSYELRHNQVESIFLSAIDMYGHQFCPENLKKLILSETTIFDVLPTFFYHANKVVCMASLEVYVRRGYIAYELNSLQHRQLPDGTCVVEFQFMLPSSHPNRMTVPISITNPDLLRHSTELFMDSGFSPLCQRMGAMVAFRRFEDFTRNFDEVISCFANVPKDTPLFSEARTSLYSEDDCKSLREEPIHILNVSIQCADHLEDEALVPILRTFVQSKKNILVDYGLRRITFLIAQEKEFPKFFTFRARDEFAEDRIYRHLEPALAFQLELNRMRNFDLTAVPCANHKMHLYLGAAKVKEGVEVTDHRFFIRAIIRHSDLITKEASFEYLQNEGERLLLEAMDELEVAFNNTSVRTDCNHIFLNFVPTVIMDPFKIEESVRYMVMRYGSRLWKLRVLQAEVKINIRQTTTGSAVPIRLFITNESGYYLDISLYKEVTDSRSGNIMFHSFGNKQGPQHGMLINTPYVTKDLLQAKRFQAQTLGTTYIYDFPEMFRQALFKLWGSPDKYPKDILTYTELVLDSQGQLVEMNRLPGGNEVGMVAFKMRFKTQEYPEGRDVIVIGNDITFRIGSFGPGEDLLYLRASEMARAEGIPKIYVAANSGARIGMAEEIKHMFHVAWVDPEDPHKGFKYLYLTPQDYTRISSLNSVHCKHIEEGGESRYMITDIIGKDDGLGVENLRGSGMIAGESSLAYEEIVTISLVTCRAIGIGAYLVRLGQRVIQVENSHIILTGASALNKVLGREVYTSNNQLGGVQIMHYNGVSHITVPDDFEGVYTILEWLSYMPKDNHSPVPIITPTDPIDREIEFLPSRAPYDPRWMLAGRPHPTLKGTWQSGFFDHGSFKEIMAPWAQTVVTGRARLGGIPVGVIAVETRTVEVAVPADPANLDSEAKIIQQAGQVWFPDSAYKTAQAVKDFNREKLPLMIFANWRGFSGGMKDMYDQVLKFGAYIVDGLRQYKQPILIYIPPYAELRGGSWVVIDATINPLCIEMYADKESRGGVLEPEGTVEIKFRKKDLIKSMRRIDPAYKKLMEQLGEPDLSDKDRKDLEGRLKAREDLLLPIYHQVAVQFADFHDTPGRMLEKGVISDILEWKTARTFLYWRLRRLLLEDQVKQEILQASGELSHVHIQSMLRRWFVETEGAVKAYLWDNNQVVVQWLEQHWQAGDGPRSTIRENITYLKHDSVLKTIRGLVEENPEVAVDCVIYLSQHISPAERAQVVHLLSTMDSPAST

For `Cc1ccc(-c2ccc(C)c(C3=C(O)C4(CCCCC4)NC3=O)c2)cc1` [1-13, 3-(4,4′-dimethylbiphenyl-3-yl)-4-hydroxy-1-azaspiro[4.5]dec-3-en-2-one], the IC50 in assay [1] (setting [3]) was 216 nM; in the assay with MCF7 (setting [4]), 410 nM; in assay [2] it was > 20000 nM.
As to `Cc1ccc(-c2ccc(Cl)cc2)cc1C1C(=O)N(C)OC(C)(C)C1=O` (stereo not shown) [11-1, 4-(4′-chloro-4-methylbiphenyl-3-yl)-2,6,6-trimethyl-1,2-oxazinane-3,5-dione], the IC50 is 19200 nM in assay [1] and 3330 nM in the assay with MCF7 (MCF7 cells).
Take `Cc1ccc(-c2ccc(C)c(C3=C(O)C4(CCCCC4)CC3=O)c2)cc1` [6-1, 3-(4,4′-dimethylbiphenyl-3-yl)-4-hydroxyspiro[4.5]dec-3-en-2-one]: the figures for the 50% inhibitory concentration (IC50) (in assay [1] (setting [3]); with MCF7 (setting [5]); in assay [2]) were 411 nM, 545 nM and 19700 nM, respectively.
In the assay with MCF7 (setting [5]), `Cc1ccc(-c2ccc(Cl)cc2)cc1C1=C(O)C2(CCCCC2)SC1=O` [3-2, 3-(4′-chloro-4-methylbiphenyl-3-yl)-4-hydroxy-1-thiaspiro[4.5]dec-3-en-2-one] showed an IC50 of 461 nM.
As to `Cc1cc(C)c(-c2ccc(Cl)cc2)cc1C1=C(O)C2(CCCCCC2)OC1=O` [2-43, 3-(4′-chloro-4,6-dimethylbiphenyl-3-yl)-4-hydroxy-1-oxaspiro[4.6]undec-3-en-2-one], the IC50 in assay [1] is 168 nM; with MCF7 (MCF7 cells) it was 263 nM; in assay [2] it was 737 nM.
`Cc1ccc(-c2ccc(Cl)cc2)cc1C1=C(O)C2(CCCCCCC2)NC1=O` [1-23, 3-(4′-chloro-4-methylbiphenyl-3-yl)-4-hydroxy-1-azaspiro[4.7]dodec-3-en-2-one]: the 50% inhibitory concentration (IC50) was 459 nM in assay [1] (setting [3]), 262 nM in the assay on MCF7 (setting [4]) and 2330 nM in assay [2].
In the case of `Cc1cc(C)c(-c2ccc(Cl)cc2)c(C)c1C1=C(O)[C@]2(CC[C@@]3(CCCO3)CC2)OC1=O` [2-31, (5r,8s)-3-(4′-chloro-2,4,6-trimethylbiphenyl-3-yl)-4-hydroxy-1,9-dioxadispiro[4.2.4.2]tetradec-3-en-2-one], the 50% inhibitory concentration (IC50) in assay [1] came to 2000 nM; in the assay with MCF7 (MCF7 cells), 490 nM; in assay [2] it was 76 nM.
Regarding `COC1CCC2(CC1)OC(=O)C(c1c(C)ccc(-c3ccc(Cl)cc3)c1C)=C2O` (stereo not shown) [2-34, 3-(4′-chloro-2,4-dimethylbiphenyl-3-yl)-4-hydroxy-8-methoxy-1-oxaspiro[4.5]dec-3-en-2-one], the half-maximal inhibitory concentration (IC50) in the assay with MCF7 (MCF7 cells) was 429 nM.
With `COCCC1CCCC2(C1)OC(=O)C(c1cc(-c3ccc(Cl)cc3)ccc1C)=C2O` (stereo not shown) [2-18, 3-(4′-chloro-4-methylbiphenyl-3-yl)-4-hydroxy-7-(2 methoxyethyl)-1-oxaspiro[4.5]dec-3-en-2-one], the concentration for half-maximal inhibition (IC50) in assay [1] (setting [6]) came to 276 nM; in the assay on MCF7 (MCF7 cells), 935 nM; in assay [2], 12200 nM.
On to `Cc1cc(C)c(-c2ccc(Cl)cc2)cc1C1=C(O)C2(CCCCC2)SC1=O` [3-3, 3-(4′-chloro-4,6-dimethylbiphenyl-3-yl)-4-hydroxy-1-thiaspiro[4.5]dec-3-en-2-one], for which the figures for the 50% inhibitory concentration (IC50) (in assay [1] (setting [3]); in the assay with MCF7 (setting [5]); in assay [2]) were 265 nM, 575 nM and 1150 nM, respectively.
Take `CCC1CCC2(CC1)CC(=O)C(c1cc(-c3ccc(Cl)cc3)ccc1C)=C2O` (stereo not shown) [6-5, 3-(4′-chloro-4-methylbiphenyl-3-yl)-8-ethyl-4-hydroxyspiro[4.5]dec-3-en-2-one]: the figures for the concentration for half-maximal inhibition (IC50) (in assay [1] (setting [3]); in the assay on MCF7 (setting [5]); in assay [2]) were 523 nM, 605 nM and 1210 nM, respectively.
In the case of `COC1CCCC2(C1)OC(=O)C(c1c(C)cc(C)c(-c3ccc(Cl)cc3)c1C)=C2O` (stereo not shown) [2-12, 3-(4′-chloro-2,4,6-trimethylbiphenyl-3-yl)-4-hydroxy-7-methoxy-1-oxaspiro[4.5]dec-3-en-2-one], the results for the half-maximal inhibitory concentration (IC50) (in assay [1]; in the assay on MCF7 (MCF7 cells); in assay [2]) were 4260 nM, 1240 nM and 3420 nM, respectively.
For the molecule `Cc1cc(C)c(-c2ccc(Cl)cc2)cc1C1=C(O)C2(CCSCC2)OC1=O` [2-42, 3-(4′-chloro-4,6-dimethylbiphenyl-3-yl)-4-hydroxy-1-oxa-8-thiaspiro[4.5]dec-3-en-2-one], the half-inhibitory concentration (IC50) in assay [1] (setting [6]) stood at 246 nM; with MCF7 (MCF7 cells) it was 466 nM; in assay [2], 1560 nM.
Turning to `Cc1ccc(-c2ccc(Cl)cc2)cc1C1=C(O)CC(C)(C)N(C)C1=O` [9-4, 3-(4′-chloro-4-methylbiphenyl-3-yl)-4-hydroxy-1,6,6-trimethyl-5,6-], the results for the IC50 (in assay [1] (setting [3]); with MCF7 (MCF7 cells)) were 2540 nM and 3440 nM, respectively.
In the case of `COCC1CCC2(CC1)OC(=O)C(c1c(C)ccc(-c3ccc(Cl)cc3)c1C)=C2O` (stereo not shown) [2-17, 3-(4′-chloro-2,4-dimethylbiphenyl-3-yl)-4-hydroxy-8-(methoxymethyl)-1-oxaspiro[4.5]dec-3-en-2-one], the IC50 in assay [1] (setting [6]) came out at 58 nM; in the assay with MCF7 (MCF7 cells) it was 400 nM; in assay [2] it was 1180 nM.
As to `Cc1ccc(-c2ccc(Cl)cc2)cc1C1=C(O)C(C)(C)C(C)(C)NC1=O` [9-14, 3-(4′-chloro-4-methylbiphenyl-3-yl)-4-hydroxy-5,5,6,6-tetramethyl-5,6-dihydropyridin-2(1H)-one], the IC50 in assay [1] (setting [3]) is 6470 nM; with MCF7 (MCF7 cells) it was 1460 nM; in assay [2], > 20000 nM.
Regarding `COCCC1CCC2(CC1)NC(=O)C(c1c(C)ccc(-c3ccc(Cl)cc3)c1C)=C2O` (stereo not shown) [1-57, 3-(4′-chloro-2,4-dimethylbiphenyl-3-yl)-4-hydroxy-8-(2-methoxyethyl)-1-azaspiro[4.5]dec-3-en-2-one], the IC50 was 1290 nM in assay [1], 250 nM in the assay with MCF7 (setting [4]) and 1680 nM in assay [2].
As for `Cc1ccc(-c2ccc(Cl)cc2)cc1C1=C(O)[C@@]2(CC[C@H](OCC(C)C)C2)NC1=O` (relative stereo) [1-49, rel-(5R,7R)-3-(4′-chloro-4-methylbiphenyl-3-yl)-4-hydroxy-7-(2-methylpropoxy)-1-azaspiro[4.4]non-3-en-2-one], the half-inhibitory concentration (IC50) in assay [1] (setting [3]) is 10600 nM; in the assay with MCF7 (setting [4]) it was 640 nM; in assay [2], > 20000 nM.
As for `Cc1ccc(-c2ccc(Cl)cc2)cc1C1=C(O)CC(C)(C)CC1=O` [7-5, 2-(4′-chloro-4-methylbiphenyl-3-yl)-3-hydroxy-5,5-dimethylcyclohex-2-en-1-one], the results for the IC50 (in assay [1]; in the assay with MCF7 (setting [5])) were 906 nM and 992 nM, respectively.
With `COCC1CCCC2(C1)NC(=O)C(c1cc(-c3ccc(Cl)cc3)ccc1Cl)=C2O` (stereo not shown) [1-52, 3-(4,4′-dichlorobiphenyl-3-yl)-4-hydroxy-7-(methoxymethyl)-1-azaspiro[4.5]dec-3-en-2-one], the values for the IC50 (in assay [1]; with MCF7 (setting [4]); in assay [2]) were 1790 nM, 739 nM and 16000 nM, respectively.
Turning to `Cc1ccc(-c2ccc(Cl)cc2)cc1C1=C(O)C2(CCCCCC2)CC1=O` [6-7, 3-(4′-chloro-4-methylbiphenyl-3-yl)-4-hydroxyspiro[4.6]undec-3-en-2-one], the concentration for half-maximal inhibition (IC50) came out at 1030 nM in assay [1] (setting [3]), 338 nM in the assay with MCF7 (setting [5]) and 7190 nM in assay [2].
In the case of `COC1CCC2(CC1)OC(=O)C(c1cc(-c3ccc(Cl)cc3)c(C)cc1C)=C2O` (stereo not shown) [2-44, 3-(4′-chloro-4,6-dimethylbiphenyl-3-yl)-4-hydroxy-8-methoxy-1-oxaspiro[4.5]dec-3-en-2-one], the IC50 in assay [1] turned out to be 220 nM; in the assay with MCF7 (MCF7 cells) it was 121 nM; in assay [2] it was 244 nM.
Turning to `Cc1ccc(-c2ccc(Cl)cc2)cc1C1=C(O)CC2(CCCCC2)CC1=O` [7-2, 3-(4′-chloro-4-methylbiphenyl-3-yl)-4-hydroxyspiro[5.5]undec-3-en-2-one], the half-maximal inhibitory concentration (IC50) in assay [1] (setting [3]) amounted to 501 nM; in the assay with MCF7 (setting [5]), 1210 nM.
Consider `O=C1C(c2cc(-c3ccc(Cl)cc3)ccc2Cl)C(=O)N2CCCCN12` [8-2, 2-(4,4′-dichlorobiphenyl-3-yl)tetrahydro-1H-pyrazolo[1,2-a]pyridazine-1,3(2H)-dione], for which the 50% inhibitory concentration (IC50) was 401 nM in assay [1] and 878 nM in the assay with MCF7 (setting [5]).
`CO[C@H]1CC[C@]2(CC1)NC(=O)C(c1c(C)cc(C)c(-c3ccc(F)cc3)c1C)=C2O` [1-42, (5s,8s)-3-(4′-fluoro-2,4,6-trimethylbiphenyl-3-yl)-4-hydroxy-8-methoxy-1-azaspiro[4.5]dec-3-en-2-one] had a 50% inhibitory concentration (IC50) in the assay with MCF7 (setting [4]) of 1280 nM.
`Cc1ccc(-c2ccc(Cl)cc2)cc1C1=C(O)CC(C)(C)NC1=O` [9-1, 3-(4′-chloro-4-methylbiphenyl-3-yl)-4-hydroxy-6,6-dimethyl-5,6-dihydropyridin-2(1H)-one]: the half-maximal inhibitory concentration (IC50) in assay [1] (setting [3]) is 3760 nM; in the assay on MCF7 (MCF7 cells), 1260 nM.
For the molecule `CC1COC2(CCC3(CC2)NC(=O)C(c2cc(-c4ccc(Cl)cc4)ccc2Cl)=C3O)O1` (stereo not shown) [1-68, 11-(4,4′-dichlorobiphenyl-3-yl)-12-hydroxy-2-methyl-1,4-dioxa-9-azadispiro[4.2.4.2]tetradec-11-en-10-one], the values for the IC50 in assay [1] and in assay [2] were 547 nM and 5900 nM, respectively.
For `CC[C@]1(OC)CC[C@@]2(CC1)NC(=O)C(c1c(C)ccc(-c3ccc(Cl)cc3)c1C)=C2O` [1-88, (5r,8r)-3-(4′-chloro-2,4-dimethylbiphenyl-3-yl)-8-ethyl-4-hydroxy-8-methoxy-1-azaspiro[4.5]dec-3-en-2-one], the IC50 in assay [1] is 452 nM; in assay [2], 11700 nM.

One may read the IC50 as the concentration needed to halve the response being measured.
